{"source": "paper PMC10906927", "about": "“Structure of the PCNA unloader Elg1-RFC” (Science Advances, 2024)", "molecules": {"B1": {"name": "proliferating cell nuclear antigen (PCNA), S. cerevisiae (natural protein)", "chain": "MLEAKFEEASLFKRIIDGFKDCVQLVNFQCKEDGIIAQAVDDSRVLLVSLEIGVEAFQEYRCDHPVTLGMDLTSLSKILRCGNNTDTLTLIADNTPDSIILLFEDTKKDRIAEYSLKLMDIDADFLKIEELQYDSTLSLPSSEFSKIVRDLSQLSDSINIMITKETIKFVADGDIGSGSVIIKPFVDMEHPETSIKLEMDQPVDLTFGAKYLLDIIKGSSLSDRVGIRLSSEAPALFQFDLKSGFLQFFLAPKFNDEE", "notes": "PCNA, S. cerevisiae sliding clamp; Homotrimeric ring; In the unloading assays the kinase site was labelled with 32P; also called PCNA clamp; PCNA ring"}}, "key": {"Elg1-RFC [1]": {"tested_on": "T1, Elg1-RFC", "T1 construct": "heteropentamer; 3xFLAG-Elg1 and Rfc5 (pLANT-2RIL) with Rfc2, Rfc3, Rfc4 (pET11a) co-expressed in E. coli BLR(DE3) (results text says expressed in yeast); anti-FLAG and MonoS; no tag removal told", "T1 sequence (P40348 whole entry, one chain of several, further chain)": "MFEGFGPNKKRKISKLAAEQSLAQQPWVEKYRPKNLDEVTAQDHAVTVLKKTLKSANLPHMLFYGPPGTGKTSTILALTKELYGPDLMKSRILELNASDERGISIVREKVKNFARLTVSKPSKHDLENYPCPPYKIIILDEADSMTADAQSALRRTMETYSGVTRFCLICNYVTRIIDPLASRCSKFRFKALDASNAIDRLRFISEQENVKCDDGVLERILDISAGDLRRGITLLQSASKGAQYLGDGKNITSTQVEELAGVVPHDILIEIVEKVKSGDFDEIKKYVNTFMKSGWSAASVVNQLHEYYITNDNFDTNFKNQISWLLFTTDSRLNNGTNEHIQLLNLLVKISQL", "T1 sequence (P38251 whole entry, one chain of several, further chain)": "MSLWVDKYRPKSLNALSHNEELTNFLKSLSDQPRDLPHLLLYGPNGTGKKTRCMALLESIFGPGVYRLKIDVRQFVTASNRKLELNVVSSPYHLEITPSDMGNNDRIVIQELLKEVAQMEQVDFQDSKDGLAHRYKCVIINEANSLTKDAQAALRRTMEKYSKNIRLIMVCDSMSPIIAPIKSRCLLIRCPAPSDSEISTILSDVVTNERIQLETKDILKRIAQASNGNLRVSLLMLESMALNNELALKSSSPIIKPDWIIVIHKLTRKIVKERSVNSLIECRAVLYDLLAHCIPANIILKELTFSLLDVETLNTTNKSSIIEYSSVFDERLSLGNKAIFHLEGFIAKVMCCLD", "test": "cryo-EM structure, […] Å", "type": "binding, Saccharomyces cerevisiae"}, "Elg1-RFC–PCNA": {"tested_on": "T2, Elg1-RFC–PCNA", "T2 construct": "with Proliferating cell nuclear antigen", "T2 sequence (P40348 whole entry, one chain of several, further chain)": "as the sequence (P40348 whole entry, one chain of several, further chain) above", "T2 sequence (P38251 whole entry, one chain of several, further chain)": "as the sequence (P38251 whole entry, one chain of several, further chain) above", "test": "cryo-EM structure, […] Å (closed PCNA) and […] Å (cracked PCNA)", "type": "binding, Saccharomyces cerevisiae", "conditions": "glutaraldehyde cross-linked"}, "Elg1-RFC [2]": {"tested_on": "T1, Elg1-RFC", "test": "[…]-PCNA unloading from nicked plasmid, gel filtration", "type": "biochemical, Saccharomyces cerevisiae", "conditions": "2 mM AMP-PNP, 56 nM Elg1-RFC, 0.69 nM 32P-PCNA-DNA, 8 mM MgCl2, 100 mM NaCl, pH 7.5, 30 °C, 2 min; supports unloading without hydrolysis"}, "[3]": {"target": "T3, Elg1 (enhanced levels of genome instability 1), subunit of Elg1-RFC (S. cerevisiae, UniProt Q12050 1-791)", "T3 construct": "Elg1 (enhanced levels of genome instability 1), S. cerevisiae; Stood in the assay as a subunit of the Elg1-RFC pentamer; also called 3xFLAG-Elg1; Elg1 subunit; source: E. coli BLR(DE3), co-expressed with Rfc2-5, purified as Elg1-RFC (anti-FLAG resin, MonoS)", "T3 sequence (looked up)": "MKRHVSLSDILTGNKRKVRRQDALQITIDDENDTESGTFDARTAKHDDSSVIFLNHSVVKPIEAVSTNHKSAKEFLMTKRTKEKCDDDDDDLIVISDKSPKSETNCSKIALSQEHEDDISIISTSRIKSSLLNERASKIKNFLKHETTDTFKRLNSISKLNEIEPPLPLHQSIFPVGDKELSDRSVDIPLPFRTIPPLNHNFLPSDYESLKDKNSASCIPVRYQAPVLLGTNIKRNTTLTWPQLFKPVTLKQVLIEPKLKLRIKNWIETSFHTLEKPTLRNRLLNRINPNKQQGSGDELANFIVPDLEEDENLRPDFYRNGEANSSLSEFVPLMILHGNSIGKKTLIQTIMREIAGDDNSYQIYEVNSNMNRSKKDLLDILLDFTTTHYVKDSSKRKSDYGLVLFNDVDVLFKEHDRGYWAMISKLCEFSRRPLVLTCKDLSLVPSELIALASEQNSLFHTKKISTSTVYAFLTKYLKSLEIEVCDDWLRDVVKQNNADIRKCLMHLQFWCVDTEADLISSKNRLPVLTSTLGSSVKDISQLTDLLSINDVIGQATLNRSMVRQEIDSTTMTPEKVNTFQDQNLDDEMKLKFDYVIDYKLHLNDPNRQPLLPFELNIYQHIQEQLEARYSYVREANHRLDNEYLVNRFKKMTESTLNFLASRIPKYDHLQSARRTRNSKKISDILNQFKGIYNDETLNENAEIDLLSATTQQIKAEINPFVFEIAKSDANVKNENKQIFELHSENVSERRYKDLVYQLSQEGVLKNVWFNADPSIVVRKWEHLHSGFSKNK", "test": "cryo-EM structure; Elg1-RFC 2.9 uM, PCNA clamp 1.3 uM, 5'-tailed DNA 28.7 uM, ATPgammaS 0.5 mM, Mg-acetate 6.7 mM, ice-water bath, then cross-linked with glutaraldehyde and quenched with Tris; no DNA seen in the maps; closed and cracked PCNA ring", "conditions": "both partners purified"}, "[4]": {"target": "T4, Rfc3, subunit of Elg1-RFC (S. cerevisiae, UniProt P38629 1-340)", "T4 construct": "Rfc3, S. cerevisiae replication factor C subunit 3; Stood in the assay as a subunit of the Elg1-RFC pentamer; source: E. coli BLR(DE3), co-expressed with Elg1 and Rfc2, 4, 5, purified as Elg1-RFC (anti-FLAG resin, MonoS)", "T4 sequence": "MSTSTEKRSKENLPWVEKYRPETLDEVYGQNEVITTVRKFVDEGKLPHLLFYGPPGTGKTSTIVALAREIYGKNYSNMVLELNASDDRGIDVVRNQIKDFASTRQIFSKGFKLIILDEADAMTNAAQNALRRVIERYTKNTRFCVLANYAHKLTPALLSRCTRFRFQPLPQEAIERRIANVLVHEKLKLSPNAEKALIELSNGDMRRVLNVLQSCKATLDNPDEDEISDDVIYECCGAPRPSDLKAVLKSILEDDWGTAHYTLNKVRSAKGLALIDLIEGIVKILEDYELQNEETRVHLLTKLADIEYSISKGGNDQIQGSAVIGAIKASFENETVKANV", "test": "cryo-EM structure; Elg1-RFC 2.9 uM, PCNA clamp 1.3 uM, 5'-tailed DNA 28.7 uM, ATPgammaS 0.5 mM, Mg-acetate 6.7 mM, ice-water bath, then cross-linked with glutaraldehyde and quenched with Tris; no DNA seen in the maps; closed and cracked PCNA ring", "conditions": "both partners purified"}, "[5]": {"target": "T5, Rfc4, subunit of Elg1-RFC (S. cerevisiae, UniProt P40339 1-323)", "T5 construct": "Rfc4, S. cerevisiae replication factor C subunit 4; Stood in the assay as a subunit of the Elg1-RFC pentamer; source: E. coli BLR(DE3), co-expressed with Elg1 and Rfc2, 3, 5, purified as Elg1-RFC (anti-FLAG resin, MonoS)", "T5 sequence": "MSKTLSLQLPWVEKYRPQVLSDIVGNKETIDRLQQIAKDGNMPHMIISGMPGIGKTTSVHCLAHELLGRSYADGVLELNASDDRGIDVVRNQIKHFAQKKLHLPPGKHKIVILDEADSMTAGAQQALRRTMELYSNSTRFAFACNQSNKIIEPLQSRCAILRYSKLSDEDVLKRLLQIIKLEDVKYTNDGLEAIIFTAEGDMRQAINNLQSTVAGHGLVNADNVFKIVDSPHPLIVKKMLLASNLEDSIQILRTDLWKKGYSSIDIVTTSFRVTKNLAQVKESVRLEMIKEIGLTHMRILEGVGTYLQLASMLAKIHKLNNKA", "test": "cryo-EM structure; Elg1-RFC 2.9 uM, PCNA clamp 1.3 uM, 5'-tailed DNA 28.7 uM, ATPgammaS 0.5 mM, Mg-acetate 6.7 mM, ice-water bath, then cross-linked with glutaraldehyde and quenched with Tris; no DNA seen in the maps; closed and cracked PCNA ring", "conditions": "both partners purified"}, "[6]": {"target": "the molecule itself", "test": "cryo-EM structure; Elg1-RFC 2.9 uM, PCNA clamp 1.3 uM, 5'-tailed DNA 28.7 uM, ATPgammaS 0.5 mM, Mg-acetate 6.7 mM, ice-water bath, then cross-linked with glutaraldehyde and quenched with Tris; no DNA seen in the maps; closed and cracked PCNA ring"}, "[7]": {"conditions": "site in Rfc5, ADP not listed among added components"}}, "data": [{"molecule": "Nc1ncnc2c1ncn2[C@@H]1O[C@H](COP(=O)(O)OP(=O)(O)O)[C@@H](O)[C@H]1O", "note": "[ADP]", "values": [{"measurement": "cryo-EM structure, 3.2 Å", "setting": "Elg1-RFC [1]; [7]", "value": "four ATPγS in Rfc2, Rfc3, Rfc4, and Elg1, and one ADP in Rfc5"}, {"measurement": "cryo-EM structure, 3.3 Å (closed PCNA) and 3.7 Å (cracked PCNA)", "setting": "Elg1-RFC–PCNA; [7]", "value": "In all three Elg1-RFC structures, we found five bound nucleotides"}]}, {"molecule": "Nc1ncnc2c1ncn2[C@@H]1O[C@H](COP(=O)(O)OP(=O)(O)NP(=O)(O)O)[C@@H](O)[C@H]1O", "note": "[AMP-PNP]", "values": [{"measurement": "32P-PCNA unloading from nicked plasmid, gel filtration", "setting": "Elg1-RFC [2]", "value": "Elg1-RFC can unload PCNA from DNA with non-hydrolyzable AMP-PNP"}]}, {"molecule": "Nc1ncnc2c1ncn2[C@@H]1O[C@H](COP(=O)(O)OP(=O)(O)OP(O)(O)=S)[C@@H](O)[C@H]1O", "note": "[ATPγS]", "values": [{"measurement": "cryo-EM structure, 3.2 Å", "setting": "Elg1-RFC [1]; 0.5 mM ATPγS final (1 mM in results text), 6.7 mM Mg-acetate, sites in Rfc2, Rfc3, Rfc4 and Elg1, Elg1 site without Mg density", "value": "four ATPγS in Rfc2, Rfc3, Rfc4, and Elg1, and one ADP in Rfc5"}, {"measurement": "cryo-EM structure, 3.3 Å (closed PCNA) and 3.7 Å (cracked PCNA)", "setting": "Elg1-RFC–PCNA; 0.5 mM ATPγS final (1 mM in results text), 6.7 mM Mg-acetate, sites in Rfc2, Rfc3, Rfc4 and Elg1", "value": "In all three Elg1-RFC structures, we found five bound nucleotides: four ATPγS in Rfc2, Rfc3"}]}, {"molecule": "B1", "values": [{"measurement": "binding result", "setting": "[3]", "value": "binds"}, {"measurement": "binding result", "setting": "[4]", "value": "binds"}, {"measurement": "binding result", "setting": "[5]", "value": "binds"}, {"measurement": "stoichiometry N", "setting": "[6]", "value": 3}]}]}
